# According to patent US8623832B2, “Peptide compositions that bind TLR-4” (The Board of Regents of the University of Oklahoma, priority 2011, dated 2014):
# Where no end group is shown, it is not given here.
# How the values were obtained:
# [1] = system: DSS-colitis; assay: Dextran sodium sulfate (DSS)-colitis model in mice; format: in vivo; details: 3% DSS 7 days, SPA4 100 μg daily intraperitoneal
# Experimental: SPA4 peptide reduced serum TNF-α and inflammation in Dextran sodium sulfate (DSS)-colitis model in mice (FIG. 18). SPA4 peptide was also evaluated in the mouse model of DSS-colitis. DSS (3% in drinking water) was given to the mice for a period of 7 days. In the treatment group, mice were simultaneously injected with SPA4 peptide (100 μg daily via intraperitoneal route). After 2 days of recovery period, the mice were weighed, colons were macroscopically examined, and blood samples were harvested. The TNF-α levels were measured by ELISA.
# [2] = system: NF-κB; assay: NF-κB luciferase reporter activity in LPS-challenged SW480 cells; format: cell-based, human; details: LPS 1.0 μg/ml
# Experimental: NF-κB activity: Since binding of LPS to TLR4 activates NF-κB through MYD88-dependent and independent pathways, the effects of SPA4 peptide on basal and LPS-induced NF-κB activity were investigated in SW480 cells transfected with a dominant negative construct of MYD88 (MYD88DN) and NF-κB firefly-luciferase reporter plasmid DNA. Both the short-(1 hour) and long-term (5 hours) effects of the SPA4 peptide on NF-κB activity were studied.
# The SW480 cells were transiently-transfected with NF-κB firefly-luciferase reporter plasmid pGL4.32 (luc2P/NF-κB-RE/Hygro, Promega, WI; provided by Dr. Kelly Standifer, Department of Pharmaceutical Sciences, University of Oklahoma Health Sciences Center, Oklahoma City, Okla.) and MYD88-dominant negative plasmid construct (MYD88DN, provided by Dr. Ruslan Medzhitov, Yale University, CT). MYD88 dominant negative plasmid DNA construct lacked the death domain and intermediate domain (Medzhitov et al., 1998). Briefly, NF-κB-Luciferase reporter and MYD88-dominant negative plasmids (1.0 μg each) were mixed with 6 μl of Fugene HD reagent (Roche, Ind.) in 92 μl of serum-free low-glucose DMEM medium (Invitrogen, CA), and incubated for 20 minutes at room temperature. The transfection-mix was then added to the SW480 cells. The SW480 cells transfected with a plasmid DNA construct expressing enhanced green fluorescent protein (pHYG-EGFP; Clontech, CA) were observed under Leica DM4000B fluorescent microscope. The transfection efficiency was calculated as percent of cells expressing EGFP over total number of cells in the brightfield channel. […]
# After completion of the incubation period, the medium supernatants were removed and cells were washed with room-temperature DPBS. […] The firefly-luciferase activity (measurement of NF-κB activity) was measured using the luciferase reporter assay system (Promega, Fitchburg, Wis.). Briefly, 50 μl of luciferase assay reagent was added to the 20 μl cell lysate by automated dispenser of Synergy HT multi-mode microplate reader (Biotek, Winooski, Vt.), and luminescence was read within 10 seconds. […]
# [3] = system: SW480 cells; assay: Cell cycle analysis of SW480 cells by flow cytometry; format: cell-based, human; details: SPA4 10, 50 and 100 μM; over 40 h
# Experimental: Cell cycle analysis: The effect of SPA4 peptide on cell cycle progression was studied by flow-cytometry. About 500,000 cells were seeded per well into 6 well plate. The cells were challenged with LPS (100 ng/ml) for 4 hours. After the completion of 4 hours LPS-challenge period, SPA4 peptide (10, 50 and 100 μM) was added to the cells. Cells were further incubated for 20 and 40 hours. Vehicle-treated cells were also included. After 20 and 40 hours of total incubation period, both adherent and non-adherent cells were collected and centrifuged at 260×g for 5 minutes. The supernatant was discarded and cell pellet was washed with DPBS (Invitrogen-Gibco, NY). The cells were fixed in 70% ice-cold ethanol on ice for 1 hour and stained with a buffer containing 200 μg/ml DNase-free RNase A (Sigma, St Louis, Mo.), 0.1% v/v Triton-X 100 and 20 μg/ml propidium iodide (Molecular Probes, Carlsbad, Calif.). The cells were incubated at 4° C. for 30 minutes in the dark, before measuring cell fluorescence using Becton Dickson FACS Calibur flow cytometer. The single cells were selected by gating out the aggregates and the percent number of cell populations in different cell cycle phases were calculated by de-convoluting the results ModFIT software (Verity software house, Topsham, Me.).
sequence,measurement,setting,value
"GDFRYSDGTPVNYTNWYRGE [SPA4, GDFRYSDGT PVNYTNWYRGE]",colitis symptoms (distension and shortening of the colon),[1],reduced the colitis symptoms
same,DSS-induced serum levels of circulating TNF-α,[1]; ELISA,completely inhibited
same,body weight,[1]; compared to DSS-colitis mice,recovered
same,colon length,[1]; compared to DSS-colitis mice,recovered
same,LPS induced NF-κB activity at 9 hours,"[2]; SPA4 1, 10 or 50 μM, long-term",not significantly inhibited
same,LPS induced-NF-κB activity after 5 hours,"[2]; SPA4 10 and 50 μM, short-term",reduces
same,NF-κB activity in cells transfected with dominant negative construct of MYD88,[2]; MYD88DN,did not further reduce
same,cell cycle progression of SW480 cells,[3],did not affect
